The text below walks through data of patent publication US20120003661A1, “METHODS AND DEVICES FOR THE SELECTIVE DETECTION OF MICROORGANISMS” (C3 JIAN, INC., priority 2010, published 2012).

“Also recorded” adds a separate entry of the source.

This test deals with bacteria, fungi, and/or yeasts. It is filed as binding. The conditions noted are these: microorganism(s) the targeting peptide binds, as listed in Table 2.
For 1T-93 (AMRSVNQA), the “Target(s)” value was “S. epidermidis, S. gordonii, S. mitis,; also recorded: S. mutans, S. oralis, S. sanguinis”.
The same measure for 1T-94 (DQVAHSGDMLVQARRRDS): “S. mitis, S. mutans, S. oralis”; for 1T-95 (GHLLRVGGRVGGVGGVAGACAQPFGGQ): “S. gordonii, S. mitis, S. mutans,; also recorded: S. oralis, S. sanguinis”.
The same measure for 1T-96 (VAGACAQPFGGQ): “S. gordonii, S. mitis, S. mutans,; also recorded: S. oralis, S. sanguinis”.
The same measure for “1T-97 (GVAERNLDRITVAVAIIWTITIVGLGLVAKLG)”: “A. naeslundii, F. nucleatum, P. gingivalis,; also recorded: S. epidermidis, S. gordonii,; also recorded: S. mitis, S. mutans, S. oralis,; also recorded: S. salivarious, S. sanguinis”; for “1T-98 (VRSAKAVKALTAAGYTGELVNVSGGMKAWLGQ)”: “A. naeslundii, F. nucleatum, P. gingivalis,; also recorded: S. epidermidis, S. gordonii,; also recorded: S. mitis, S. mutans, S. oralis,; also recorded: S. salivarious, S. sanguinis”.
For 1T-99 (MKAWLGQ), the “Target(s)” value is recorded as “S. gordonii, S. mitis, S. mutans,; also recorded: S. oralis, S. sanguinis”.
As for “1T-100 (LDPLEPRIAPPGDRSHQGAPACHRDPLRGRSARDAER)”, the “Target(s)” value is recorded as “S. gordonii, S. mitis, S. mutans”.
The same measure for 1T-101 (RLRVGRATDLPLTSFAVGVVRNLPDAPAH): “A. naeslundii, P. gingivalis, S. epidermidis,; also recorded: S. gordonii, S. mitis,; also recorded: S. mutans, S. oralis, S. sanguinis”; for 1T-102 (WKRLWPARILAGHSRRRMRWMVVWRYFAAT): “A. naeslundii, F. nucleatum, P. gingivalis,; also recorded: S. epidermidis, S. gordonii,; also recorded: S. mitis, S. mutans, S. oralis,; also recorded: S. salivarious, S. sanguinis”; for 1T-103 (AQFYEAIITGYALGAGQRIGQL): “A. naeslundii, F. nucleatum, P. gingivalis,; also recorded: S. epidermidis, S. gordonii,; also recorded: S. mitis, S. mutans, S. oralis,; also recorded: S. sanguinis”.
On to 1T-104 (RAVAAHLQGRHHGHQVRRQRHGQR), for which the “Target(s)” value is “S. mitis”.
The same measure for 1T-105 (GEGLPPPVLHLPPPRMSGR): “S. epidermidis, S. gordonii, S. mitis,; also recorded: S. mutans, S. oralis”; for 1T-106 (DALRRSRSQGRRHR): “S. gordonii, S. mitis, S. mutans,; also recorded: S. oralis, S. salivarious”.
1T-107 (SPVPRFTAVGGVSRGSP): the “Target(s)” value is listed as “A. naeslundii, S. epidermidis, S. gordonii,; also recorded: S. mitis, S. mutans, S. oralis,; also recorded: S. salivarious, S. sanguinis”.
For 1T-108 (WGPLGPERPLW), the “Target(s)” value is “S. gordonii, S. mitis, S. mutans,; also recorded: S. oralis, S. salivarious, S. sanguinis”.
For the substance 1T-109 (VTTNVRQGAGS), the “Target(s)” value was “A. naeslundii, S. epidermidis, S. gordonii,; also recorded: S. mitis, S. mutans, S. oralis,; also recorded: S. salivarious, S. sanguinis”.
The same measure for 1T-110 (LAAKTAVCVGRAFM): “A. naeslundii, P. gingivalis, S. epidermidis,; also recorded: S. gordonii, S. mitis,; also recorded: S. mutans, S. oralis, S. sanguinis”; for 1T-111 (GRLSRREEDPATSIILLRGAYRMAVF): “A. naeslundii, F. nucleatum, P. gingivalis,; also recorded: S. epidermidis, S. gordonii,; also recorded: S. mitis, S. mutans, S. oralis,; also recorded: S. salivarious, S. sanguinis”; for 1T-112 (SDNDGKLILGTSQ): “S. gordonii”.
Take “1T-113 (HGAHQRTGQRLHHHRGRTVSGCRQNPVAGVDPDEHR)”: the “Target(s)” value is reported as “S. mitis”.
To 1T-114 (RQAPGPGLVTITAACSAPGSRSR) belongs “A. naeslundii, P. gingivalis, S. epidermidis,; also recorded: S. gordonii, S. mitis,; also recorded: S. mutans, S. oralis, S. sanguinis”; to 1T-115 (LLIERFSNHH), “A. naeslundii, F. nucleatum, P. gingivalis,; also recorded: S. epidermidis, S. gordonii,; also recorded: S. mitis, S. mutans, S. oralis,; also recorded: S. salivarious, S. sanguinis”; to 1T-116 (MILHRRRDR), “A. naeslundii, P. gingivalis, S. epidermidis,; also recorded: S. gordonii, S. mitis,; also recorded: S. mutans, S. oralis, S. salivarious,; also recorded: S. sanguinis”.
To 1T-117 (GPGVVGPAPFSRLPAHALNL) belongs “S. mutans”; to “1T-118 (TASPPAPSDQGLRTAFPATLLIALAALARISR)”, “A. naeslundii, F. nucleatum, P. gingivalis,; also recorded: S. epidermidis, S. gordonii,; also recorded: S. mitis, S. mutans, S. oralis,; also recorded: S. salivarious, S. sanguinis”; to “1T-119 (SPATQKAPTRAQPSRAPVQDCGDGRPTAAPDDVERLSPR)”, “S. gordonii, S. mitis, S. mutans,; also recorded: S. oralis”.
On to 1T-120 (DVRDRVDLAGADLCAAHATR), for which the “Target(s)” value is on record as “A. naeslundii, F. nucleatum, P. gingivalis,; also recorded: S. epidermidis, S. gordonii,; also recorded: S. mitis, S. mutans, S. oralis,; also recorded: S. salivarious, S. sanguinis”.
For 1T-121 (FAKETGFGIGGAQEGWWIIADIYGPNPF), the “Target(s)” value is recorded as “S. gordonii, S. mitis, S. mutans,; also recorded: S. oralis, S. salivarious, S. sanguinis”.
To 1T-122 (GAIPDPVTHRVDWEEDHQTRPSR) belongs “S. mitis”; to 1T-123 (LVRRNAVAGRSDGLAGAEQLDLVRLQGVL), “S. gordonii”.
The same measure for 1T-124 (LFDERNKIA): “S. mitis, S. mutans, S. oralis”.
To 1T-125 (DAITGGNPPLSDTDGLRP) belongs “S. epidermidis, S. gordonii, S. mutans,; also recorded: S. oralis”; to 1T-126 (QGLARPVLRRIPL), “S. gordonii, S. mitis, S. mutans”.
Turning to 1T-127 (YDPVPKRKNKNSEGKREE), the “Target(s)” value is on record as “A. naeslundii, F. nucleatum, P. gingivalis,; also recorded: T. denticola, S. gordonii,; also recorded: S. mitis, S. mutans, S. oralis,; also recorded: S. salivarious, S. sanguinis”.
In the case of 1T-128 (SGSAIRMLEIATKMLKR), the “Target(s)” value is recorded as “A. naeslundii, P. gingivalis, S. epidermidis,; also recorded: S. gordonii, S. mitis,; also recorded: S. mutans, S. oralis, S. salivarious,; also recorded: S. sanguinis”.
Regarding 1T-129 (YDKYIKYLSIQPPFIVYFI), the “Target(s)” value was “A. naeslundii, P. gingivalis, S. epidermidis,; also recorded: S. gordonii, S. mitis,; also recorded: S. mutans, S. oralis, S. salivarious,; also recorded: S. sanguinis”.
Turning to “1T-130 (QKIIDMSKFLFSLILFIMIVVIYIGKSIGGYSAIVSSIMLELDTVLYNKKIFFIYK)”, the “Target(s)” value was “A. naeslundii, F. nucleatum, P. gingivalis,; also recorded: S. epidermidis, S. gordonii,; also recorded: S. mitis, S. mutans, S. oralis,; also recorded: S. salivarious, S. sanguinis”.
To 1T-131 (DEVWKMLGI) belongs “A. naeslundii, F. nucleatum, P. gingivalis,; also recorded: T. denticola, S. gordonii,; also recorded: S. mitis, S. mutans, S. oralis,; also recorded: S. salivarious, S. sanguinis”; to “1T-132 (YSKKLFEYFYFIIFILIRYLIFYKIIQNKNYYINNIAYN)”, “A. naeslundii, F. nucleatum, P. gingivalis,; also recorded: S. epidermidis, S. gordonii,; also recorded: S. mitis, S. mutans, S. oralis,; also recorded: S. salivarious, S. sanguinis”; to “1T-133 (YFIKDDNEALSKDWEVIGNDLKGTIDKYGKEFKVR)”, “A. naeslundii, P. gingivalis, S. epidermidis,; also recorded: S. gordonii, S. mitis,; also recorded: S. mutans, S. oralis, S. salivarious,; also recorded: S. sanguinis”.
With 1T-134 (SRLVREIKKKCRKS), the “Target(s)” value was “A. naeslundii, F. nucleatum, P. gingivalis,; also recorded: S. epidermidis, S. gordonii,; also recorded: S. mitis, S. mutans, S. oralis,; also recorded: S. salivarious, S. sanguinis”.
To 1T-135 (FESLLPQATKKIVNNKGSKINKIF) belongs “A. naeslundii, P. gingivalis, S. epidermidis,; also recorded: S. gordonii, S. mitis,; also recorded: S. mutans, S. oralis, S. salivarious,; also recorded: S. sanguinis”; to 1T-136 (ELLTQIRLALLYSVNEW), “A. naeslundii, F. nucleatum, P. gingivalis,; also recorded: S. epidermidis, S. gordonii,; also recorded: S. mitis, S. mutans, S. oralis,; also recorded: S. salivarious, S. sanguinis”.
The same measure for “1T-137 (PLNFYRAVKENRLPLSEKNINDFTNIKLKVSPKLINLLQESSIFYNFSPKKRNTN)”: “A. naeslundii, F. nucleatum, P. gingivalis,; also recorded: S. epidermidis, S. gordonii,; also recorded: S. mitis, S. mutans, S. oralis,; also recorded: S. salivarious, S. sanguinis”; for “1T-138 (YPNEYCIFLENLSLEELKEIKAINGETLNLEEIINERKNLKD)”: “A. naeslundii, F. nucleatum, P. gingivalis,; also recorded: S. epidermidis, S. gordonii,; also recorded: S. mitis, S. mutans, S. oralis,; also recorded: S. salivarious, S. sanguinis”; for “1T-139 (AVAGAAVGALLGNDARSTAVGAAIGGALGAGAGELTKNK)”: “A. naeslundii, S. gordonii, S. mitis,; also recorded: S. mutans, S. oralis”.
“1T-140 (IKGTIAFVGEDYVEIRVDKGVKLTFRKSAIANVINNNQQ)”: the “Target(s)” value is on record as “A. naeslundii, F. nucleatum, P. gingivalis,; also recorded: S. epidermidis, S. gordonii,; also recorded: S. mitis, S. mutans, S. oralis,; also recorded: S. salivarious, S. sanguinis”.
To 1T-141 (KKFIILLFILVQGLIFSATKTLSDIIAL) belongs “F. nucleatum, P. gingivalis, S. epidermidis,; also recorded: S. gordonii, S. mitis,; also recorded: S. mutans, S. oralis, S. sanguinis”; to 1T-142 (FTQGIKRIVLKRLKED), “A. naeslundii, F. nucleatum, P. gingivalis,; also recorded: T. denticola, S. gordonii,; also recorded: S. mitis, S. mutans, S. oralis,; also recorded: S. salivarious, S. sanguinis”.
The same measure for 1T-143 (MPKRHYYKLEAKALQFGLPFAYSPIQLLK): “A. naeslundii, F. nucleatum, P. gingivalis,; also recorded: S. epidermidis, S. gordonii,; also recorded: S. mitis, S. mutans, S. oralis,; also recorded: S. salivarious, S. sanguinis”; for 1T-144 (IIELHPKSWTQDWRCSFL): “A. naeslundii, F. nucleatum, P. gingivalis,; also recorded: T. denticola, S. gordonii,; also recorded: S. mitis, S. mutans, S. oralis,; also recorded: S. salivarious, S. sanguinis”; for “1T-145 (VEAGKRNISLENIEKISKGLGISISELFKYIEEGEDKIG)”: “S. mitis, S. mutans, S. oralis”.
For the substance “1T-146 (RNSADNQTKIDKIRIDISLWDEHLNIVKQGK)”, the “Target(s)” value is given as “A. naeslundii, F. nucleatum, P. gingivalis,; also recorded: T. denticola, S. gordonii,; also recorded: S. mitis, S. mutans, S. oralis,; also recorded: S. salivarious, S. sanguinis”.
